Literature values as cited in PMC10254170, “Diastereoselective Synthesis of the Borylated D-Galactose Monosaccharide 3-Boronic-3-Deoxy-D-Galactose and Biological Evaluation in Glycosidase Inhibition and in Cancer for Boron Neutron Capture Therapy (BNCT)” (Molecules, 2023).

Test system: human
Details: 5 min; cited from earlier work

In the case of `c1ccccc1` [benzene], the LCLO is given as 20,000 ppm.
